Test results as given in ChEMBL document CHEMBL5634161, “Discovery of benzamide-based PI3K/HDAC dual inhibitors with marked pro-apoptosis activity in lymphoma cells” (Eur J Med Chem, 2023).
Active and inactive are the calls of the source. No cut-off for these calls is given here.

Key:
Histone deacetylase 1 = Histone deacetylase 1 (Homo sapiens, UniProt Q13547); experiment: Inhibition of HDAC1 (unknown origin) using Boc-Lys(acetyl)-AMC as substrate preincubated for 1 hrs followed by substrate addition and measured after 2 hrs by spectrophotometer based fluorometric assay
Histone deacetylase 1, sequence (Q13547 whole entry): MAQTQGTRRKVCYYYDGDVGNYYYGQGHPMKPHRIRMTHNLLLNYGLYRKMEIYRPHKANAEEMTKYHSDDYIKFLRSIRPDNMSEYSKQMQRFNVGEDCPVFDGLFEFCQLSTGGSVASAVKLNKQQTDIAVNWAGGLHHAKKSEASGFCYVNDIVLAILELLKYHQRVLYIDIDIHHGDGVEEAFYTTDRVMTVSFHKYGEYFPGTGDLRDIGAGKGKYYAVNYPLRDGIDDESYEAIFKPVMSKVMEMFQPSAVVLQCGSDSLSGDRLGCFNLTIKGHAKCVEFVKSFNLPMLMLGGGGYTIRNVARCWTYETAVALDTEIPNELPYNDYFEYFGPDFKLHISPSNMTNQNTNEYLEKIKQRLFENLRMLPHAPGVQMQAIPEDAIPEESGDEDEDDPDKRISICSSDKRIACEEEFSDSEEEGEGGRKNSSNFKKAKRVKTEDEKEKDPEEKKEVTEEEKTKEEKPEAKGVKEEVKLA

Histone deacetylase 2 = Histone deacetylase 2 (Homo sapiens, UniProt Q92769); experiment: Inhibition of HDAC2 (unknown origin) using Boc-Lys(acetyl)-AMC as substrate preincubated for 1 hrs followed by substrate addition and measured after 2 hrs by spectrophotometer based fluorometric assay
Histone deacetylase 2, sequence (Q92769 whole entry): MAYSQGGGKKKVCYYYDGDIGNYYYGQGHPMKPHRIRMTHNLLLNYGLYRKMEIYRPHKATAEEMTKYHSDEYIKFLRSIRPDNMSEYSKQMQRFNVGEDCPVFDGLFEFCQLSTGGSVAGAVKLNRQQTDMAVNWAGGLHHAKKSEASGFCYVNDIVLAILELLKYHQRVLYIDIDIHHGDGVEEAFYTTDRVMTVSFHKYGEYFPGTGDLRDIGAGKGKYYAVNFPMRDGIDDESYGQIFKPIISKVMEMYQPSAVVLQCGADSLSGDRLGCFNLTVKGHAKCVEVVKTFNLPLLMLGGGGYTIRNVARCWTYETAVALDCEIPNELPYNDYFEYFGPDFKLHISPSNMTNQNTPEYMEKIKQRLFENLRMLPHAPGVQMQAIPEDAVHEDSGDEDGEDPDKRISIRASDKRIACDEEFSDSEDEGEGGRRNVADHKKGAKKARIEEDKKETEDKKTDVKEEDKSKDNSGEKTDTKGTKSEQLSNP

Histone deacetylase 3 = Histone deacetylase 3 (Homo sapiens, UniProt O15379); experiment: Inhibition of HDAC3 (unknown origin) using Boc-Lys(acetyl)-AMC as substrate preincubated for 1 hrs followed by substrate addition and measured after 2 hrs by spectrophotometer based fluorometric assay
Histone deacetylase 3, sequence (O15379 whole entry, canonical isoform): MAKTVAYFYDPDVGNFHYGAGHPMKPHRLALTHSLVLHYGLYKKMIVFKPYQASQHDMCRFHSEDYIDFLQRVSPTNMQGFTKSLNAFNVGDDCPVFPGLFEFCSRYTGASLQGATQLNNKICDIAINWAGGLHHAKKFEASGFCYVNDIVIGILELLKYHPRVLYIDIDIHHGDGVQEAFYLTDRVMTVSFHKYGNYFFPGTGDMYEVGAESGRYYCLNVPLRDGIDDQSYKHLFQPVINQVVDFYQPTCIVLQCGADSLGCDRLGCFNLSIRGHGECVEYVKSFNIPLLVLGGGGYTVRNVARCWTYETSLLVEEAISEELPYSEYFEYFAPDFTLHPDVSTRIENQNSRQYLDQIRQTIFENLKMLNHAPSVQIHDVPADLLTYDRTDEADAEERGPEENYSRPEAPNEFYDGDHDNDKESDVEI

[1] = biological target: Phosphatidylinositol 4,5-bisphosphate 3-kinase catalytic subunit alpha isoform (Homo sapiens, UniProt P42336); experiment: Inhibition of PI3Kalpha (unknown origin) using PIP2 as substrate incubated for 1 hrs in presence of ATP by ADP-Glo kinase assay
Phosphatidylinositol 4,5-bisphosphate 3-kinase catalytic subunit alpha isoform, sequence (P42336 whole entry, canonical isoform): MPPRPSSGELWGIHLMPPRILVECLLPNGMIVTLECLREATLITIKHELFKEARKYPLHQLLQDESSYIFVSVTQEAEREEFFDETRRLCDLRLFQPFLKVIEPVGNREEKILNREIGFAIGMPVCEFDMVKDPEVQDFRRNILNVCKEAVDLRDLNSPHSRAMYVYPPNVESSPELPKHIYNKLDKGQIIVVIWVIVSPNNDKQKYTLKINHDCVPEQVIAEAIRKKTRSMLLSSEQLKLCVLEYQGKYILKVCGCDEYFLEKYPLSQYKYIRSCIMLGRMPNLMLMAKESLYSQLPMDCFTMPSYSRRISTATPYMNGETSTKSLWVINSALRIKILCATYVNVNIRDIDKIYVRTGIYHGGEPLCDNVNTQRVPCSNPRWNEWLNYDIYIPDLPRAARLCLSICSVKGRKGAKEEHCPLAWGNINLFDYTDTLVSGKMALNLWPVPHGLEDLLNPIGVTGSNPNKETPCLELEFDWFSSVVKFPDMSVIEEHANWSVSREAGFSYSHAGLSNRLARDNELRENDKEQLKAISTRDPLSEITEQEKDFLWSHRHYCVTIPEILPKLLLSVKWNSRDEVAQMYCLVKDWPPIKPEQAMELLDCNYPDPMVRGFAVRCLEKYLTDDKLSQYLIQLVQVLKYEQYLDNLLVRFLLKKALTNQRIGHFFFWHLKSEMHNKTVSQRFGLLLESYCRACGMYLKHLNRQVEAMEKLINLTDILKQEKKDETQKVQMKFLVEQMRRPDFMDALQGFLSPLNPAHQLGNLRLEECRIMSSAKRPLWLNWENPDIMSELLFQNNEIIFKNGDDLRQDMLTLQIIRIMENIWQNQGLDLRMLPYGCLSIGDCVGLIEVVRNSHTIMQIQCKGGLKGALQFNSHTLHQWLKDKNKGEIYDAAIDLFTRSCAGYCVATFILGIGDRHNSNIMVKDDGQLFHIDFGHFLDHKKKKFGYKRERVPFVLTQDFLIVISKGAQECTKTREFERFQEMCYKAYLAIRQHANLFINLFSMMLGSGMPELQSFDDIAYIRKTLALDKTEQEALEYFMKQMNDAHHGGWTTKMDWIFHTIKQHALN

JeKo-1 [2] = experiment: Potentiation of CI994-induced apoptosis in human JeKo-1 cells; type: functional, cell-based
MM1.S = experiment: Antiproliferative activity against human MM1.S cells incubated for 48 hrs by resazurin dye based fluorescence micro plate reader analysis; type: functional, cell-based
HL-60 = experiment: Antiproliferative activity against human HL-60 cells incubated for 48 hrs by resazurin dye based fluorescence micro plate reader analysis; type: functional, cell-based; details: HL-60, 48 h
JeKo-1 [3] = experiment: Effect on total AKT protein level in human JeKo-1 cells at 0.25 uM incubated for 24 hrs by Western blot analysis; type: functional, cell-based
[4] = Inhibition of PI3K/AKT/mTOR signaling in human JeKo-1 cells assessed as decrease in AKT phosphorylation at S473 residue at 0.25 uM incubated for 24 hrs by Western blot analysis; type: cell-based
JeKo-1 [5] = experiment: Induction of apoptosis in human JeKo-1 cells assessed as late apoptotic cells at 0.25 uM incubated for 48 hrs by Annexin-V/FITC and PI staining based flow cytometric analysis (reference value: 3.66%); type: functional
JeKo-1 [6] = experiment: Induction of apoptosis in human JeKo-1 cells assessed as necrotic cells at 0.25 uM incubated for 48 hrs by Annexin-V/FITC and PI staining based flow cytometric analysis (reference value: 1.05%); type: functional
[7] = Cytotoxicity against human HL7702 cells incubated for 48 hrs by resazurin dye based fluorescence micro plate reader analysis; type: toxicity, cell-based; details: HL7702 (L02) cells
JeKo-1 [8] = experiment: Induction of apoptosis in human JeKo-1 cells assessed as late apoptotic cells at 1 uM incubated for 48 hrs by Annexin-V/FITC and PI staining based flow cytometric analysis (reference value: 3.66%); type: functional
JeKo-1 [9] = experiment: Antiproliferative activity against human JeKo-1 cells incubated for 48 hrs by resazurin dye based fluorescence micro plate reader analysis; type: functional, cell-based; details: JeKo-1, 48 h
JeKo-1 [10] = experiment: Induction of apoptosis in human JeKo-1 cells assessed as late apoptotic cells at 0.5 uM incubated for 48 hrs by Annexin-V/FITC and PI staining based flow cytometric analysis (reference value: 3.66%); type: functional
JeKo-1 [11] = experiment: Induction of apoptosis in human JeKo-1 cells assessed as necrotic cells at 0.5 uM incubated for 48 hrs by Annexin-V/FITC and PI staining based flow cytometric analysis (reference value: 1.05%); type: functional
JeKo-1 [12] = experiment: Induction of apoptosis in human JeKo-1 cells assessed as viable cells at 1 uM incubated for 48 hrs by Annexin-V/FITC and PI staining based flow cytometric analysis (reference value: 94.1%); type: functional; details: read-out: Activity
JeKo-1 [13] = experiment: Induction of apoptosis in human JeKo-1 cells assessed as necrotic cells at 1 uM incubated for 48 hrs by Annexin-V/FITC and PI staining based flow cytometric analysis (reference value: 1.05%); type: functional
JeKo-1 [14] = experiment: Induction of apoptosis in human JeKo-1 cells assessed as viable cells at 0.25 uM incubated for 48 hrs by Annexin-V/FITC and PI staining based flow cytometric analysis (reference value: 94.1%); type: functional; details: read-out: Activity
JeKo-1 [15] = experiment: Induction of apoptosis in human JeKo-1 cells assessed as viable cells at 0.5 uM incubated for 48 hrs by Annexin-V/FITC and PI staining based flow cytometric analysis (reference value: 94.1%); type: functional; details: read-out: Activity
MDA-MB-231 = experiment: Antiproliferative activity against human MDA-MB-231 cells incubated for 48 hrs by resazurin dye based fluorescence micro plate reader analysis; type: functional, cell-based; details: MDA-MB-231, 48 h

| SMILES | IC50 (Histone deacetylase 1) | IC50 (Histone deacetylase 2) | IC50 (Histone deacetylase 3) | IC50 [1] | further results |
| --- | --- | --- | --- | --- | --- |
| Nc1ccccc1NC(=O)CCCCNC(=O)c1ccc(NC(=O)Nc2ccc(-c3nc(N4CCOCC4)nc(N4CCOCC4)n3)cc2)cc1 | > 10000 nM | > 10000 nM | > 10000 nM | 13.3 nM | – |
| CNCCNC(=O)c1ccc(NC(=O)Nc2ccc(-c3nc(OC)nc(N4CCOCC4)n3)cc2)cc1 | – | – | – | 2.4 nM | Activity (JeKo-1 [2]): Active; IC50 (MM1.S): 3300 nM; IC50 (HL-60): 3100 nM; Activity (JeKo-1 [3]): inactive; inhibition [4]: Active; Activity (JeKo-1 [5]): 4.5%; Activity (JeKo-1 [6]): 0.73%; IC50 at 48 h [7]: > 100000 nM; Activity (JeKo-1 [8]): 8.29%; IC50 (JeKo-1 [9]): 1100 nM; Activity (JeKo-1 [10]): 3.51%; Activity (JeKo-1 [11]): 0.41%; viability at 1 µM (JeKo-1 [12]): 91.5%; Activity (JeKo-1 [13]): 0.4%; viability at 0.25 µM (JeKo-1 [14]): 93.9%; viability at 0.5 µM (JeKo-1 [15]): 94.8%; IC50 (MDA-MB-231): 4200 nM |
| COc1nc(-c2ccc(NC(=O)Nc3ccc(C(=O)Nc4ccccc4N)cc3)cc2)nc(N2CCOCC2)n1 | > 10000 nM | > 10000 nM | 334 nM | 11.2 nM | – |
| Nc1ccccc1NC(=O)CCCCCNC(=O)c1ccc(NC(=O)Nc2ccc(-c3nc(OC4CCOC4)nc(N4CCOCC4)n3)cc2)cc1 (stereo not drawn) | 211 nM | 247 nM | 54 nM | 7.9 nM | – |
| Nc1c(NC(=O)c2ccc(NC(=O)Nc3ccc(-c4nc(N5CCOCC5)nc(N5CCOCC5)n4)cc3)cc2)ccc(F)c1F | > 10000 nM | > 10000 nM | 1410 nM | 14.3 nM | – |
| Nc1ccccc1NC(=O)CNC(=O)c1ccc(NC(=O)Nc2ccc(-c3nc(N4CCOCC4)nc(N4CCOCC4)n3)cc2)cc1 | 1950 nM | > 10000 nM | > 10000 nM | 37.7 nM | – |
| COc1nc(-c2ccc(NC(=O)Nc3ccc(C(=O)Nc4ccc(F)c(F)c4N)cc3)cc2)nc(N2CCOCC2)n1 | > 10000 nM | > 10000 nM | – | 20.5 nM | – |
| Nc1ccccc1NC(=O)CCCCCNC(=O)c1ccc(NC(=O)Nc2ccc(-c3nc(OC4COC4)nc(N4CCOCC4)n3)cc2)cc1 | 81.5 nM | 128 nM | 17.7 nM | 4.5 nM | – |
| Nc1ccccc1NC(=O)CCCCCCCNC(=O)c1ccc(NC(=O)Nc2ccc(-c3nc(N4CCOCC4)nc(N4CCOCC4)n3)cc2)cc1 | 345 nM | 490 nM | 210 nM | 75.7 nM | – |
| Nc1ccccc1NC(=O)CCNC(=O)c1ccc(NC(=O)Nc2ccc(-c3nc(N4CCOCC4)nc(N4CCOCC4)n3)cc2)cc1 | > 10000 nM | > 10000 nM | > 10000 nM | 51.7 nM | – |
